Source: the NIST ThermoML archive (doi:10.1016/j.jct.2015.11.012)

Experiment: xn = mol fraction of the nth substance listed
Settings: 100 kPa, Liquid; for viscosity: Capillary tube (Ostwald / Ubbelohde) method; for speed of sound: Frequency=2 MHz, Linear variable-path acoustic interferometer; for mass density: Vibrating tube method

OCCCl [1-chloro-2-hydroxyethane] + Nc1cccc(Cl)c1
Settings | mass density, 313.15 K [kg/m3] | mass density, 318.15 K [kg/m3] | speed of sound, 313.15 K [m/s] | speed of sound, 318.15 K [m/s] | viscosity, 313.15 K [mPa·s] | viscosity, 318.15 K [mPa·s]
x2 = 0 | 1178.05 | 1170.87 | 1315.5 | 1301.2 | 1.852 | 1.564
x2 = 0.0844 | 1181.05 | 1173.91 | 1337.6 | 1323.6 | 1.995 | 1.698
x2 = 0.1759 | 1183.78 | 1176.26 | 1359.6 | 1345.1 | 2.147 | 1.84
x2 = 0.2675 | 1186.13 | 1178.79 | 1379.6 | 1365.6 | 2.296 | 1.978
x2 = 0.3622 | 1188.2 | 1181.24 | 1398.4 | 1384.1 | 2.448 | 2.118
x2 = 0.4808 | 1190.36 | 1184.01 | 1419.6 | 1404.8 | 2.636 | 2.292
x2 = 0.5814 | 1191.88 | 1185.85 | 1435.7 | 1420.8 | 2.795 | 2.438
x2 = 0.6862 | 1193.24 | 1187.52 | 1450.5 | 1435.5 | 2.958 | 2.589
x2 = 0.7938 | 1194.4 | 1189.32 | 1463.3 | 1448.6 | 3.123 | 2.741
x2 = 0.8902 | 1195.27 | 1190.2 | 1472.8 | 1458 | 3.269 | 2.874
